The values that follow come from patent US20240374600A1, “METHODS AND COMPOSITIONS FOR TREATING CANCER” (Onconova Therapeutics, Inc., priority 2021, published 2024).

“Also recorded” adds a separate entry of the source.

Data set [1] in a line: Neutropenia in preclinical models (FIG. 2). It is filed as in vivo. The note with it: in comparison to Comparator 1.
A further data set has as its system kinases. The experiment in a line: KinMap kinase inhibition profile (FIG. 1). The settings on record: compared to a kinase inhibitor that is not compound 1.
The next data set concerns the target CDK4/cyclin D1 (Homo sapiens, UniProt P11802). The data set can be described thus: In vitro multi-kinase activity, IC50. The data set is classed as biochemical. An excerpt:
(§1) The study evaluates the IC50 values (in nM) of Compound 1 in comparison to FDA approved CDK 4/6 inhibitors Comparator 1, Comparator 2 and Comparator 3, which represent treatment advances for HR+ HER^2-metastatic breast cancer. IC50 value is a quantitative measure indicating the concentration needed to inhibit the listed kinase by 50%.

The target of another data set is CDK6/cyclin D1 (Homo sapiens, UniProt Q00534). The data set can be described thus: In vitro multi-kinase activity, IC50. It is filed as biochemical.
Excerpt: as §1

The target in a further data set is T1, ARK 5/NUAK 1 (Homo sapiens, UniProt O60285).
T1 sequence (O60285 1-661): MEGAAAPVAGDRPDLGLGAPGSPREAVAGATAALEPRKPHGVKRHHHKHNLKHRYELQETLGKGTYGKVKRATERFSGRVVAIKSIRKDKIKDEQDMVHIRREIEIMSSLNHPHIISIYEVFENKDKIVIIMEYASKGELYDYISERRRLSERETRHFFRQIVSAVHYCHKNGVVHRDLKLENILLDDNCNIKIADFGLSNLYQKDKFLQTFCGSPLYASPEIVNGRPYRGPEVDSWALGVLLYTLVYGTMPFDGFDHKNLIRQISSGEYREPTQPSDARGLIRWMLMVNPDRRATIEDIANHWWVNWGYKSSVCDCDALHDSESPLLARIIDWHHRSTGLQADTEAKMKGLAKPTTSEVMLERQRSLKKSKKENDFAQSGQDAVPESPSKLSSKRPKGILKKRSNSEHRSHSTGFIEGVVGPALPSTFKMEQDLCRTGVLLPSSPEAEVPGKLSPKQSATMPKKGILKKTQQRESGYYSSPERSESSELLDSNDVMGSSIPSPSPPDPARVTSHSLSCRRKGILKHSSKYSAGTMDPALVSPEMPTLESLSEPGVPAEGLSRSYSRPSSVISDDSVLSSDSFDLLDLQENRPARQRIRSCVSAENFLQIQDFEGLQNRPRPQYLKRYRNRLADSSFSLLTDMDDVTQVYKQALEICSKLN
The experiment in a line: In vitro multi-kinase activity, IC50. It is filed as biochemical.
Excerpt: as §1

The target in a further data set is CDK2/cyclin E (Homo sapiens, UniProt P24941). The experiment in a line: In vitro multi-kinase activity, IC50. It is filed as biochemical.
Excerpt: as §1

A further data set has as its target CDK1/cyclin B (Homo sapiens, UniProt P06493). The experiment in a line: In vitro multi-kinase activity, IC50. It is filed as biochemical.
Excerpt: as §1

Another data set concerns the target CSF1R (Homo sapiens, UniProt P07333). The experiment in a line: In vitro multi-kinase activity, IC50. It is filed as biochemical.
Excerpt: as §1

A further data set deals with KIT (Homo sapiens, UniProt P10721). The experiment in a line: In vitro multi-kinase activity, IC50. It is filed as biochemical.
Excerpt: as §1

Another data set deals with CDK16/cyclin Y (Homo sapiens, UniProt Q00536). The data set can be described thus: In vitro multi-kinase activity, IC50. The data set is classed as biochemical.
Excerpt: as §1

The target in a further data set is CDK7/cyclin H (Homo sapiens, UniProt P50613). The experiment in a line: In vitro multi-kinase activity, IC50. The data set is classed as biochemical.
Excerpt: as §1

For another data set, the target named is CDK17/cyclin Y (Homo sapiens, UniProt Q00537). The experiment in a line: In vitro multi-kinase activity, IC50. It is filed as biochemical.
Excerpt: as §1

For a further data set, the target named is CDK9/cyclinT1 (Homo sapiens, UniProt P50750). The experiment in a line: In vitro multi-kinase activity, IC50. It is filed as biochemical.
Excerpt: as §1

Data set [2] in a line: Phase 1 dose-escalation study in patients with advanced cancer. The data set is classed as in vivo, human. As for the experimental part: The study is a phase 1 dose-escalation study of 8-cyclopentyl-2-((4-(4-methylpiperazin-1-yl)phenyl)amino)-7-oxo-7,8-dihydropyrido[2,3-d]pyrimidine-6-carbonitrile (Compound 1) in patients with advanced cancer. Patients are dosed daily in 28-day cycles with Compound 1 starting at 40 mg daily with dosages escalating 40 mg/day increments for each new cohort or only on days 1-21 of 28-day cycles. […] Adverse events reported are Grade 1 or 2 in severity and are predominantly gastrointestinal (GI) disorders.

Chain of CDK9/cyclinT1 (P50750 whole entry): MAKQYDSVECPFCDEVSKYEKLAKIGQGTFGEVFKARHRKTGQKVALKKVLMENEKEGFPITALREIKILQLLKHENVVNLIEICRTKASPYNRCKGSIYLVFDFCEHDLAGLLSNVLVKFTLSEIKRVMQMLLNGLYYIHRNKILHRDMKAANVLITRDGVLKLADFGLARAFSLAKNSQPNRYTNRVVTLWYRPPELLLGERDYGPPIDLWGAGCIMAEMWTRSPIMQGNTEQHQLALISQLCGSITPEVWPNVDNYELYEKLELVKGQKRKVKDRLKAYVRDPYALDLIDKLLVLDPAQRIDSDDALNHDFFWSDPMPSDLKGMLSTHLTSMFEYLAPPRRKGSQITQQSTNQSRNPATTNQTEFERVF
Chain of CDK9/cyclinT1 (O60563 whole entry partner): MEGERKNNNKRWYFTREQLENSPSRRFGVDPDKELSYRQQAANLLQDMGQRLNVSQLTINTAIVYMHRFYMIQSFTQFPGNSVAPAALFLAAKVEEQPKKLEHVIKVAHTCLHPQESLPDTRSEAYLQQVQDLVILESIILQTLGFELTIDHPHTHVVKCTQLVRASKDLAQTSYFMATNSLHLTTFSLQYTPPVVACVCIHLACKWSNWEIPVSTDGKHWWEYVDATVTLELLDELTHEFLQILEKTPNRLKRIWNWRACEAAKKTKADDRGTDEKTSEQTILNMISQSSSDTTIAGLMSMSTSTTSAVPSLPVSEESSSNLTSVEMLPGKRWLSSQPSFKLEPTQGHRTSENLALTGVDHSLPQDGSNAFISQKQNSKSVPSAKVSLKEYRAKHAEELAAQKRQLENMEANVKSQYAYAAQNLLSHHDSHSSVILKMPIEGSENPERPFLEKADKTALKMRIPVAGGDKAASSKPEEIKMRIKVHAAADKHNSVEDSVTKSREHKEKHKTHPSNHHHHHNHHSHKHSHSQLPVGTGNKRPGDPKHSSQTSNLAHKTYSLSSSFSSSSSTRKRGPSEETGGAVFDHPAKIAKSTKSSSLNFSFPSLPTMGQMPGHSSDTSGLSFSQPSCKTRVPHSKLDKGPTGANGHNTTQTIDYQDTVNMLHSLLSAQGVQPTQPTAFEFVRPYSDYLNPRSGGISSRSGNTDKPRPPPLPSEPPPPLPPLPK
Chain of CDK4/cyclin D1 (P11802 whole entry): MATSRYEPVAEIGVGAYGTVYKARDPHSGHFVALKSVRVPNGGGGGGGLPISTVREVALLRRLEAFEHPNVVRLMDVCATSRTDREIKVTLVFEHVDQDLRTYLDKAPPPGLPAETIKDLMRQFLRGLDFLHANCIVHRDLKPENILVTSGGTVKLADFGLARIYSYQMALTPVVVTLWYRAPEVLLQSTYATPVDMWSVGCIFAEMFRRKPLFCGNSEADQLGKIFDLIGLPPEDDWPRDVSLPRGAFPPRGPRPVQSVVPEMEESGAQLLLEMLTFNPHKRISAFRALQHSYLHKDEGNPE
Chain of CDK4/cyclin D1 (P24385 whole entry partner): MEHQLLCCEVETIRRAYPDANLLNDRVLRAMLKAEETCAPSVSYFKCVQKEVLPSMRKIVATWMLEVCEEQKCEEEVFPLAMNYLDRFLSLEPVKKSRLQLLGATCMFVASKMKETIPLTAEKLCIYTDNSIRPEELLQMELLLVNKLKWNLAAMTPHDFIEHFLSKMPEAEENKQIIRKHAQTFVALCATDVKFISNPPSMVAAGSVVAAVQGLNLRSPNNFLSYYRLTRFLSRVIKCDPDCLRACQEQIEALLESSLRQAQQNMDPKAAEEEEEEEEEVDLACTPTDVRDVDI
Chain of CDK7/cyclin H (P50613 whole entry): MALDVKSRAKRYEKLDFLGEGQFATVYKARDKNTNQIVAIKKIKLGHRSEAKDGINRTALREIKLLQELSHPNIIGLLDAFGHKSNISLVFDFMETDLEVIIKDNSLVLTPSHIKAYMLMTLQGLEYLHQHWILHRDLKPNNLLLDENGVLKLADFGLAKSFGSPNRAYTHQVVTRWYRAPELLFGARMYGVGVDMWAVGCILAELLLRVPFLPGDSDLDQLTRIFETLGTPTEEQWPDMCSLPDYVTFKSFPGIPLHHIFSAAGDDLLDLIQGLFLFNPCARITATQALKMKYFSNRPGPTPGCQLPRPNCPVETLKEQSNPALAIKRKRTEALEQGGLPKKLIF
Chain of CDK7/cyclin H (P51946 whole entry partner): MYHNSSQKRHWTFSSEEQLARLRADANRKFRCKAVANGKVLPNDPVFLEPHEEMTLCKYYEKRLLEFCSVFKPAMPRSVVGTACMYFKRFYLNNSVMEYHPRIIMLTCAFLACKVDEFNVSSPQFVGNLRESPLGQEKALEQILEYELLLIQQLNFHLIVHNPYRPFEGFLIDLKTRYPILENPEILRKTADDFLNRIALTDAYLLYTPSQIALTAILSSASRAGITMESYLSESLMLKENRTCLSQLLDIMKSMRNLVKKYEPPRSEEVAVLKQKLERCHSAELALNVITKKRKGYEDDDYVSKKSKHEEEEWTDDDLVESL
Chain of CDK16/cyclin Y (Q00536 whole entry): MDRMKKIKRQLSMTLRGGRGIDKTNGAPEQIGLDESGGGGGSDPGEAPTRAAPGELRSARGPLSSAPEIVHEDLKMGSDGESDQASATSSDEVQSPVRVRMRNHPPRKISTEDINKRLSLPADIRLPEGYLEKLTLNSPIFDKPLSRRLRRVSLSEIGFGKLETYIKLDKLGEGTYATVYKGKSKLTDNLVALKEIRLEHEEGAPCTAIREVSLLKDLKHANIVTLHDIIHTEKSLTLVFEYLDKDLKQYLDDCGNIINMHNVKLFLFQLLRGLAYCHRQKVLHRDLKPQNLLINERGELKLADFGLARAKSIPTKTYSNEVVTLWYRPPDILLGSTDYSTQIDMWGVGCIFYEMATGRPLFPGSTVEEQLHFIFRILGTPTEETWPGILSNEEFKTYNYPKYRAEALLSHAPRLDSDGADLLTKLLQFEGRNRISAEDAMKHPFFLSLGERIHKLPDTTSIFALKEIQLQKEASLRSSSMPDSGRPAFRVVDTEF
Chain of CDK16/cyclin Y (Q8ND76 whole entry partner): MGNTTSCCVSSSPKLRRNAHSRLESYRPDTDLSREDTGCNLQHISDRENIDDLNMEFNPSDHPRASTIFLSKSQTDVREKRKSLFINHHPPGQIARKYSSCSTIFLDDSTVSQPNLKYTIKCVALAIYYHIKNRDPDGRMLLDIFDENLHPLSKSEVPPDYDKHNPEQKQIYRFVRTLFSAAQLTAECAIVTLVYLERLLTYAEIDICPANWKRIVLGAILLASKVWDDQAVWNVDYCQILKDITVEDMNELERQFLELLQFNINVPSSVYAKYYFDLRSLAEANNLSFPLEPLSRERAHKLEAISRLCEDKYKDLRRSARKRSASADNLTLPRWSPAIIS
Chain of CDK1/cyclin B (P06493 whole entry): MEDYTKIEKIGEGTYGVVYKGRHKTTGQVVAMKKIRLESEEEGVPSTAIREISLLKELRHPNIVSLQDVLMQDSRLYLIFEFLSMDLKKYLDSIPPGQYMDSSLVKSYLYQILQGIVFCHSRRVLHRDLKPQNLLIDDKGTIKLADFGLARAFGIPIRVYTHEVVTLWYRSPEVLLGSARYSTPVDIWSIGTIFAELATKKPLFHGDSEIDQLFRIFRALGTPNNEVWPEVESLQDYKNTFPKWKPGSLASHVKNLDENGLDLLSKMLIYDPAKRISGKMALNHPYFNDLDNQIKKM
Chain of CDK1/cyclin B (P14635 whole entry partner): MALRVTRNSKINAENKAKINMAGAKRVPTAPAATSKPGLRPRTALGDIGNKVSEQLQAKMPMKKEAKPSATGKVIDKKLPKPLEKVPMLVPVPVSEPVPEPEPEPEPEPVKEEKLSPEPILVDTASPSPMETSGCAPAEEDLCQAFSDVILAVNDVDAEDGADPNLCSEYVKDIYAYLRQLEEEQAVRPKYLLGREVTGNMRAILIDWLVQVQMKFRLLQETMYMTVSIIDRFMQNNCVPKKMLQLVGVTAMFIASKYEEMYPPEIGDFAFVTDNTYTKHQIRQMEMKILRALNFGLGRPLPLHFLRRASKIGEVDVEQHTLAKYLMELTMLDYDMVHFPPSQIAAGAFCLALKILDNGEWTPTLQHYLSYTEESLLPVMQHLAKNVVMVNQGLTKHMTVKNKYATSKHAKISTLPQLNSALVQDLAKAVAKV
Chain of CDK6/cyclin D1 (Q00534 whole entry): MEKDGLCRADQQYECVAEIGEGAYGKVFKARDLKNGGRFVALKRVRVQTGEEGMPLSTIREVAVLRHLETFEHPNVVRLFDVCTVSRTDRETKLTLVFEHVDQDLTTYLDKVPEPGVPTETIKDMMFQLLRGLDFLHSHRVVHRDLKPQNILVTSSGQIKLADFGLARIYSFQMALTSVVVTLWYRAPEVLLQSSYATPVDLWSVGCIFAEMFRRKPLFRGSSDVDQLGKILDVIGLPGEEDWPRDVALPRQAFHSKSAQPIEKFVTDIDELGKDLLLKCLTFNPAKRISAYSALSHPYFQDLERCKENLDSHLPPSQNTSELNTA
Chain of CDK6/cyclin D1 (P24385 whole entry partner): as the sequence (P24385 whole entry partner) above
Chain of CDK17/cyclin Y (Q00537 whole entry): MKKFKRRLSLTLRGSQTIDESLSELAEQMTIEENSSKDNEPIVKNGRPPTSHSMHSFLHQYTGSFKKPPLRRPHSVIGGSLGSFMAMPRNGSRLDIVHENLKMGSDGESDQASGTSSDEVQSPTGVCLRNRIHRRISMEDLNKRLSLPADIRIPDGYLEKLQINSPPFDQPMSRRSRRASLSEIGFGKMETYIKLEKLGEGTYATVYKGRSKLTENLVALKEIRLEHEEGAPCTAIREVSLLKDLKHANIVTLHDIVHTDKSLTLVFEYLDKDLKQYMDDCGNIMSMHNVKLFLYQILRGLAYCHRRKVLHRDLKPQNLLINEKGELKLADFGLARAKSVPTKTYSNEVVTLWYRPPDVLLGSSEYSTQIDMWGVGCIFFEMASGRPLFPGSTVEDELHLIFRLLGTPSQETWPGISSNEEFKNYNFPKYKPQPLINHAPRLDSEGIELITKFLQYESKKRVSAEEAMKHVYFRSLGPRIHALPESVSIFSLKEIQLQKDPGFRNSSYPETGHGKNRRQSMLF
Chain of CDK17/cyclin Y (Q8ND76 whole entry partner): as the sequence (Q8ND76 whole entry partner) above

For orientation: IC50 means the concentration needed to halve the response being measured. As for `CN1CCN(c2ccc(Nc3ncc4cc(C#N)c(=O)n(C5CCCC5)c4n3)cc2)CC1` [Compound 1, 8-cyclopentyl-2-((4-(4-methylpiperazin-1-yl)phenyl)amino)-7-oxo-7,8-dihydropyrido[2,3-d]pyrimidine-6-carbonitrile], in data set [1], the neutropenia result is listed as “reduced Neutropenia; also recorded: less neutropenia”. Further, in the data set with kinases, the “inhibition profile by KinMap” value is given as “wider inhibition profile”. Also, the IC50 on CDK4/cyclin D1 was found to be 2 nM; on CDK6/cyclin D1 it was 0.6 nM; against ARK 5/NUAK 1, 5 nM; against CDK2/cyclin E, 69 nM; against CDK1/cyclin B, 515 nM; at CSF1R, 0.7 nM. Further, the 50% inhibitory concentration (IC50) at KIT worked out at 8.5 nM; on CDK16/cyclin Y it was 25 nM; on CDK7/cyclin H, 3770 nM; on CDK17/cyclin Y it was 14 nM; against CDK9/cyclinT1 it was 48 nM. In addition, the dose-limiting toxicities entry in [2] (200 mg/day cohort, oral, daily in 28-day cycles) is given as “No dose-limiting toxicities”. The “severity of adverse events reported” value in data set [2] (predominantly gastrointestinal (GI) disorders) is given as “Grade 1 or 2”.
